Where “and” joins values, the source holds several entries; their conditions need not be identical. Equal entries are not always repeated. Where two headings read alike, the source gives them in different places. Blank lines part the entries; values can stand above or below the compound they belong to.
Columns and labels:
[1] = BAK exposure in rat liver and kidney 24 h after dosing; format: in vivo, Sprague–Dawley rats; conditions: for concentration at 24 h: Sprague-Dawley, po, 200 mg/kg
Description: The liver and kidney tissue were also collected from individual rats 24 h after dosing, weighed and then homogenized in saline solution (0.6 g wet weight/mL) on ice. Subsequently, 10 µL of internal standard solution (tanshinone II A, 10 µg/mL) and 0.3 mL of acetonitrile were added to 0.1 mL of plasma or homogenates, and centrifuged at 13,300 rpm for 15 min after 2 min of vortexing. The supernatant was reconstituted in 100 µL of mobile phase after drying under 40 °C nitrogen, the mixture then was vortexed for 5 min and centrifuged at 13,300 rpm for 15 min. Finally, 20 µL of supernatant was injected for HPLC analysis. […] The mobile phase consisted of methanol and water with 0.1% formic acid (89:11, v/v) and was supplied at a flow rate of 0.8 mL/min. The detection wavelength was set to 262 nm. […] The recovery was >93%.

[2] = biological target: T1, CYP1A2 (Homo sapiens, UniProt P05177); assay: Inhibition of CYP activities by GA in HLMs (phenacetin); format: biochemical
T1 construct: tissue iPhase Pharmaceutical Services (Beijing, China) Lot # 7MMC011; host or cells: pooled human liver microsomes
T1 sequence (P05177 1-516): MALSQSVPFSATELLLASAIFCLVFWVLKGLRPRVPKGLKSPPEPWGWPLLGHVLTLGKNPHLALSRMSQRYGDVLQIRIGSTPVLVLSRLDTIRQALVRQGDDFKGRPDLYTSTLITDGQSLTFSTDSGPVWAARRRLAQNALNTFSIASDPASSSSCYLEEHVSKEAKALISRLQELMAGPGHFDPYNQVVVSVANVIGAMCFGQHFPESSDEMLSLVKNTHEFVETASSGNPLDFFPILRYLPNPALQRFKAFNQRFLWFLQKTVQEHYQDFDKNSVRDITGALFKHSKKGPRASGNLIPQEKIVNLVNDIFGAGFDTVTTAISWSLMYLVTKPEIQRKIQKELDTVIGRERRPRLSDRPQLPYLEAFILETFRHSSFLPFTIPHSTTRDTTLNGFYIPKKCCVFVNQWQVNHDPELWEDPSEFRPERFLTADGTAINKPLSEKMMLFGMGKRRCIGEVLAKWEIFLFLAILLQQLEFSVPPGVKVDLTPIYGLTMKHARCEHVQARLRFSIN
Description: (§1) The samples containing HLMs were prepared in an ice bath, and three replicates of each dose were tested.
(§2) The reaction system consisted of 0.5 g/L HLMs, 1 mM NADPH, 25 µM phenacetin (CYP1A2 substrate), 25 µM tolbutamide (CYP2C9 substrate), 25 µM mephenytoin (CYP2C19 substrate), 10 µM dextromethorphan (CYP2D6 substrate) and 10 µM midazolam (CYP3A4 substrate). After incubation at 37 °C for 30 min, 200 µL of methanol containing 100 µg/L propranolol hydrochloride was added to terminate the reaction. The samples were then treated, and the corresponding substrate metabolites of CYP isoforms were detected according to a previously described method ([Shen et al., 2013]).

[3] = biological target: T2, CYP2D6 (Homo sapiens, UniProt P10635); assay: Inhibition of CYP activities by GA in HLMs (dextromethorphan); format: biochemical
T2 construct: was investigated in HLMs; tissue iPhase Pharmaceutical Services (Beijing, China) Lot # 7MMC011; host or cells: pooled human liver microsomes
T2 sequence (P10635 whole entry): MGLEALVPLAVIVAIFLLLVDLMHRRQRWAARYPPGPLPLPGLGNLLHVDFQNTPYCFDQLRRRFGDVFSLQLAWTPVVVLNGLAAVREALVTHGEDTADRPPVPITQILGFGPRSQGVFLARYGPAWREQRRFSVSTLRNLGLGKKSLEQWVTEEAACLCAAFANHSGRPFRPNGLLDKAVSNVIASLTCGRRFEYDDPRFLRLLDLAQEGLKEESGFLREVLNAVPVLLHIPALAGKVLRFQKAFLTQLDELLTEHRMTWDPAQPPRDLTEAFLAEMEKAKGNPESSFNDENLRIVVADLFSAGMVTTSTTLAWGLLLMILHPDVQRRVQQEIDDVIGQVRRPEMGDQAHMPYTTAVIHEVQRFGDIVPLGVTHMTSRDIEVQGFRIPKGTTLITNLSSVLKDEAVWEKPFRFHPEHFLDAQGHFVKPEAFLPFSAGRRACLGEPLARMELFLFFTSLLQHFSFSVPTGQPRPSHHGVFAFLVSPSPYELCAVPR
Description: as §1, §2

[4] = biological target: T3, CYP2C19 (Homo sapiens, UniProt P33261); assay: Inhibition of CYP activities by GA in HLMs (mephenytoin); format: biochemical
T3 construct: was investigated in HLMs; tissue iPhase Pharmaceutical Services (Beijing, China) Lot # 7MMC011; host or cells: pooled human liver microsomes
T3 sequence (P33261 whole entry): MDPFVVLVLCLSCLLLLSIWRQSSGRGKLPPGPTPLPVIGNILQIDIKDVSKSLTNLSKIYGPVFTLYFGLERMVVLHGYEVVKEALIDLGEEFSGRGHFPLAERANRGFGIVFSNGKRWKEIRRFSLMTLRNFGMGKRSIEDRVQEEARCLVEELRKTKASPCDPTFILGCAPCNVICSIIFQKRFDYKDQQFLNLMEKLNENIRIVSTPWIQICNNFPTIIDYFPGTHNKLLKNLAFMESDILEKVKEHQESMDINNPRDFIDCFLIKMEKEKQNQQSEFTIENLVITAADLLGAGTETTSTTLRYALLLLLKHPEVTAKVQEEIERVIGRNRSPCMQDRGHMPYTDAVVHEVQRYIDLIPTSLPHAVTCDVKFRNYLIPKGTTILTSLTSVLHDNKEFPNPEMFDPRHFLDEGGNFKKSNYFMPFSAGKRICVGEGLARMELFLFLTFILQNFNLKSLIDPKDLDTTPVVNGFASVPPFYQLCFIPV
Description: as §1, §2

BAK in kidney relative to liver ([1]; 24 h after administration): 1.37- to 1.54 fold
concentration at 24 h ([1]; kidney, 24 h after single oral dose, read-out: Exposure of BAK, Kidney, mean): 755 ng/g
concentration at 24 h ([1]; kidney, 24 h after single oral dose, read-out: Exposure of BAK, Kidney, single rats): 661 ng/g
concentration at 24 h ([1]; liver, 24 h after single oral dose, read-out: Exposure of BAK, Liver, mean): 548 ng/g
concentration at 24 h ([1]; liver, 24 h after single oral dose, read-out: Exposure of BAK, Liver, single rats): 531 ng/g
Compound: C=C[C@@](C)(/C=C/c1ccc(O)cc1)CCC=C(C)C [BAK, Bakuchiol]
Exposure of BAK, Kidney, single rats ([1]; 24 h after single oral dose): 0.7466 µg/g and 0.7844 µg/g and 0.7813 µg/g and 0.8035 µg/g
Exposure of BAK, Liver, single rats ([1]; 24 h after single oral dose): 0.5617 µg/g and 0.5502 µg/g and 0.5630 µg/g and 0.5314 µg/g

IC50 ([2]; HLMs, 30 min pre-incubation with NADPH, phenacetin 25 µM): 61.1 ± 1.13 µM
activity at 30 min, 156.25 µM ([2]; human, human liver microsomes (HLMs), probe phenacetin 25 µM, CYP1A2-30min, GA 156.2500, vs control, read-out: Relative activity (%)): 18.2%
activity at 30 min, 312.5 µM ([2]; human, human liver microsomes, probe phenacetin 25 µM, CYP1A2-30min, GA 312.5000, vs control, read-out: Relative activity (%)): 14.1%
activity at 30 min, 1000 µM ([2]; human, human liver microsomes, probe phenacetin 25 µM, CYP1A2-30min, GA 1000.0000, vs control, read-out: Relative activity (%)): 5.73%
activity at 30 min, […] ([2]; human, human liver microsomes, probe phenacetin 25 µM, read-out: Relative activity (%)): 10.3%
activity at 30 min, 0.1 µM ([2]; human, human liver microsomes, probe phenacetin (25 µM), CYP1A2-30min, GA 0.1000, vs control, read-out: Relative activity (%)): 95%
activity at 30 min, 1 µM ([2]; human, human liver microsomes, probe phenacetin (25 µM), CYP1A2-30min, GA 1.0000, vs control, read-out: Relative activity (%)): 84.3%
activity at 30 min, 6.25 µM ([2]; human, human liver microsomes, probe phenacetin (25 µM), CYP1A2-30min, GA 6.2500, vs control, read-out: Relative activity (%)): 89.2%
activity at 30 min, 31.25 µM ([2]; human, human liver microsomes, probe phenacetin (25 µM), CYP1A2-30min, GA 31.2500, vs control, read-out: Relative activity (%)): 70.9%
activity at 30 min, 100 µM ([2]; human, human liver microsomes, probe phenacetin (25 µM), CYP1A2-30min, GA 100.0000, vs control, read-out: Relative activity (%)): 31%
IC50 ([3]; HLMs, 30 min pre-incubation with NADPH, dextromethorphan 10 µM): 263 ± 1.05 µM
activity at 30 min, 0.1 µM ([3]; human, human liver microsomes, probe dextromethorphan (10 µM), CYP2D6-30min, GA 0.10, vs control, read-out: Relative activity (%)): 96.4%
activity at 30 min, 1 µM ([3]; human, human liver microsomes, probe dextromethorphan (10 µM), CYP2D6-30min, GA 1.00, vs control, read-out: Relative activity (%)): 92.4%
activity at 30 min, 6.25 µM ([3]; human, human liver microsomes, probe dextromethorphan (10 µM), CYP2D6-30min, GA 6.25, vs control, read-out: Relative activity (%)): 96%
activity at 30 min, 31.25 µM ([3]; human, human liver microsomes, probe dextromethorphan (10 µM), CYP2D6-30min, GA 31.25, vs control, read-out: Relative activity (%)): 91.1%
activity at 30 min, 100 µM ([3]; human, human liver microsomes, probe dextromethorphan (10 µM), CYP2D6-30min, GA 100.00, vs control, read-out: Relative activity (%)): 85.1%
activity at 30 min, 156.25 µM ([3]; human, human liver microsomes, probe dextromethorphan (10 µM), CYP2D6-30min, GA 156.25, vs control, read-out: Relative activity (%)): 81.7%
activity at 30 min, 312.5 µM ([3]; human, human liver microsomes, probe dextromethorphan (10 µM), CYP2D6-30min, GA 312.50, vs control, read-out: Relative activity (%)): 42%
activity at 30 min, 1000 µM ([3]; human, human liver microsomes, probe dextromethorphan (10 µM), CYP2D6-30min, GA 1000.00, vs control, read-out: Relative activity (%)): 29.3%
activity at 30 min, […] ([3]; human, human liver microsomes, probe dextromethorphan (10 µM), read-out: Relative activity (%)): 69.7%
IC50 ([4]; HLMs, 30 min pre-incubation with NADPH, mephenytoin 25 µM): 175.2 ± 1.26 µM
activity at 30 min, 0.1 µM ([4]; human, human liver microsomes, probe mephenytoin (25 µM), CYP2C19-30min, GA 0.1000, vs control, read-out: Relative activity (%)): 117%
activity at 30 min, 1 µM ([4]; human, human liver microsomes, probe mephenytoin (25 µM), CYP2C19-30min, GA 1.0000, vs control, read-out: Relative activity (%)): 105%
activity at 30 min, 6.25 µM ([4]; human, human liver microsomes, probe mephenytoin (25 µM), CYP2C19-30min, GA 6.2500, vs control, read-out: Relative activity (%)): 88%
activity at 30 min, 31.25 µM ([4]; human, human liver microsomes, probe mephenytoin (25 µM), CYP2C19-30min, GA 31.2500, vs control, read-out: Relative activity (%)): 80%
activity at 30 min, 100 µM ([4]; human, human liver microsomes, probe mephenytoin (25 µM), CYP2C19-30min, GA 100.0000, vs control, read-out: Relative activity (%)): 72.5%
activity at 30 min, 156.25 µM ([4]; human, human liver microsomes, probe mephenytoin (25 µM), CYP2C19-30min, GA 156.2500, vs control, read-out: Relative activity (%)): 57.9%
activity at 30 min, 312.5 µM ([4]; human, human liver microsomes, probe mephenytoin (25 µM), CYP2C19-30min, GA 312.5000, vs control, read-out: Relative activity (%)): 0%
activity at 30 min, […] ([4]; human, human liver microsomes, probe mephenytoin (25 µM), read-out: Relative activity (%)): 36.8%
Compound: CC1(C)[C@@H](O)CC[C@]2(C)[C@H]3C(=O)C=C4[C@@H]5C[C@@](C)(C(=O)O)CC[C@]5(C)CC[C@@]4(C)[C@]3(C)CC[C@@H]12 [GA, Glycyrrhetinic acid]

Source: publication PMC5126668 (PeerJ, 2016)
